Measured values: patent publication US6060046A, “Antifouling compositions” (Unisearch Limited, priority 1994, dated 2000)

Experiments:
[1] = system: cyprids of the cosmopolitan fouling barnacle Balanus amphitrite; assay: Inhibition of settlement of barnacle cyprid larvae, metabolites dissolved in water; assay type: in vivo; details: 24 hr, based on FIGS. 2 and 3
Description: Settlement assays were carried out using cyprids of the cosmopolitan fouling barnacle Balanus amphitrite. The methods used were similar to those used previously (Rittschof et al, 1994, Willemson 1994). Adult brood stock were maintained under controlled light (15 hr light: 9 hr dark) and temperature (28° C.) conditions and fed larvae of the brine shrimp Artemia salina and the diatom Skeletonema costatum. Recently spawned nauplii of B. amphitrite were collected and reared on Skeletonema costatum under the same conditions as adult stocks until reaching cyprid stage after four to five days. Cyprid larvae were subsequently filtered from the culture and maintained in filtered seawater at 5° C. for five days prior to use in settlement assays.
Assays used purified metabolites at concentrations ranging from 100 μg to 0.1 ng per millilitre. […]
Tests were conducted by adding 45-65 cyprids to petri-dishes (47 mm) containing five mls of either test solution, filtered seawater control, or DMSO control. […] The dishes were then rinsed and the percent settlement of cyprids was determined by counting settled and non settled larvae.
The effects of Delisea pulchra metabolites on the settlement of barnacle cyprid larvae, the growth of bacteria and the settlement and germination of algal spores were analysed in two ways. […]

marine bacterium SW8 = assay: Inhibition of bacterial growth, marine isolate SW8; assay type: cell-based; details: c = control
Description: Assays to determine the antibacterial effect of Delisea metabolites used the marine isolate SW8 (Neu et al., 1991). […] Purified metabolites 1-4 were dissolved in ethyl acetate (10 mg/ml-10 μg/ml) and were added in volumes of 20 μl to sterilised McCartney bottles containing 19 mls of filter sterilised artificial seawater (ASW) medium supplemented with a trace vitamin and mineral solution (Schneider et al., 1994). Two reference compounds for antibacterial activity, the antibiotic gentamicin (Sigma)and a saturated copper (II) oxide solution, were also used in these tests. Following addition of metabolites, antibiotics or copper, the media was inoculated with SW8. The inoculum for the assay was taken from a continuous culture fermenter operating at a cell density of 10^7 cells/ml. The final concentration of metabolites and antibiotic tested ranged from 10 μg/ml to 10 ng/ml. Control bottles with media only, and media with 20 μl EtOAc added, were inoculated with SW8 and run concurrently with each experiment.
After mixing, 200 μl from each bottle was aseptically transferred to a well in a Nunc Tissue Culture plate (96 well). Plates were incubated aerobically at 30° C. with shaking. Growth was monitored by optical density (600 nm) every hour for 12 hours after which growth was monitored every four hours for a further 18 hours.
The effects of Delisea pulchra metabolites on the settlement of barnacle cyprid larvae, the growth of bacteria and the settlement and germination of algal spores were analysed in two ways. Firstly, we used Analysis of Variance (ANOVA) followed by Tukey's multiple comparison tests to determine which compounds, at which concentrations, had statistically significant effects on the test organisms. Analyses were done using the Statview II statistical package. These procedures enable us to determine the minimum concentration of a compound necessary to have some significant effect, and to look in a detailed way at variation in the effects of different compounds.

Compound | EC50 + 95% conf. int. (50% settlement inhibition) [1] | Compounds in order of increasing activity (growth inhibition) (marine bacterium SW8; 4 hours, 10 ng/mL) | Compounds in order of increasing activity (growth inhibition) (marine bacterium SW8; 4 hours, 100 ng/mL) | Compounds in order of increasing activity (growth inhibition) (marine bacterium SW8; 4 hours, 1.0 μg/mL) | Compounds in order of increasing activity (growth inhibition) (marine bacterium SW8; 4 hours, 10 μg/mL) | Compounds in order of increasing activity (growth inhibition) (marine bacterium SW8; 11.5 hours, 10 ng/mL) | Compounds in order of increasing activity (growth inhibition) (marine bacterium SW8; 11.5 hours, 100 ng/mL) | Compounds in order of increasing activity (growth inhibition) (marine bacterium SW8; 11.5 hours, 1.0 μg/mL) | Compounds in order of increasing activity (growth inhibition) (marine bacterium SW8; 11.5 hours, 10 μg/mL) | Compounds in order of increasing activity (growth inhibition) (marine bacterium SW8; third panel, time not given, 10 ng/mL) | Compounds in order of increasing activity (growth inhibition) (marine bacterium SW8; third panel, time not given, 100 ng/mL) | Compounds in order of increasing activity (growth inhibition) (marine bacterium SW8; third panel, time not given, 1.0 μg/mL) | Compounds in order of increasing activity (growth inhibition) (marine bacterium SW8; third panel, time not given, 10 μg/mL)
O=S(=O)([O-])[O-].[Cu+2] [CuSO4] | 0.40(0.25-0.77) μg/ml |  |  |  |  |  |  |  |  |  |  |  | 
gentamicin |  | gent c 4 2 1 3 | gent 4 c 2 3 1 | c gent 2 1 4 3 | c 1 gent 2 3 4 | gent c 2 4 1 3 | gent 4 2 c 1 3 | c gent 1 2 3 4 | c 1 2 gent 3 4 | gent 4 1 c 3 2 | gent 4 3 2 c 1 | 2 c 1 3 4 gent | c 1 2 gent 3 4
